# Measurements taken from paper PMC5773580, “A synthetic combinatorial approach to disabling deviant Hedgehog signaling” (Scientific Reports, 2018).
# Where “and” joins values, the source holds several entries; their conditions need not be identical. Equal values may be shown once.
# How the values were obtained:
# HDAC5 = target: T1, HDAC5 (Homo sapiens, UniProt Q9UQL6); test: In vitro HDAC profiling (deacetylation assay), HDAC5; format: biochemical; settings: for HDAC Activity (Fluorescent counts): Repeat1/Repeat 2
# T1 construct: purchased BPS Bioscience #50051-11
# Method: (§1) HDAC profiling was performed at BPS Bioscience (San Diego, CA). All of the compounds are dissolved in DMSO. A series of dilutions of the compounds were prepared with 10% DMSO in HDAC assay buffer (#50031) and 5 µl of the dilution was added to a 50 µl reaction so that the final concentration of DMSO is 1% in all of reactions. All of the enzymatic reactions were conducted in duplicate at 37 °C for 30 mins, except that the enzyme reactions for HDAC11 were at room temperature for 3 hrs. All of the reactions were performed in a 50 µl mixture containing HDAC assay buffer, 5 µg BSA, an HDAC substrate [HDAC Substrate 3 (BPS number 50037) or HDAC Class 2a Substrate 1 (BPS number 50040)], an HDAC enzyme (#50051-11) and a test compound. After enzymatic reactions, 50 μl of HDAC Developer (#50030) was added to each well and the plate was incubated at room temperature for an additional 20 mins. Fluorescence intensity was measured at an excitation of 360 nm and an emission of 460 nm using a Tecan Infinite M1000 microplate reader. HDAC activity assays were performed in duplicates at each concentration. The fluorescent intensity data were analyzed using the computer software, Graphpad Prism. In the absence of the compound, the fluorescent intensity (Ft) in each data set was defined as 100% activity. In the absence of HDAC, the fluorescent intensity (Fb) in each data set was defined as 0% activity. The percent activity in the presence of each compound was calculated according to the following equation: %activity = (F − Fb)/(Ft − Fb), where F = the fluorescent intensity in the presence of the compound. The values of % activity versus a series of compound concentrations were then plotted using non-linear regression analysis of Sigmoidal dose-response curve generated with the equation Y = B + (T − B)/1 + 10((LogIC50 − X) × Hill Slope), where Y = percent activity, B = minimum percent activity, T = maximum percent activity, X = logarithm of compound and Hill Slope = slope factor or Hill coefficient. The IC50 value was determined by the concentration causing a half-maximal percent activity.
# HDAC2 = target: T2, HDAC2 (Homo sapiens, UniProt Q92769); test: In vitro HDAC profiling (deacetylation assay), HDAC2; format: biochemical; settings: for HDAC Activity (Fluorescent counts): Repeat1/Repeat 2
# T2 construct: purchased BPS Bioscience #50051-11
# Method: as §1
# [1] = system: GLI-BS reporter in Ptch1-/- MEFs; test: GLI-BS reporter assay in Ptch1-/- MEFs; format: cell-based
# Method: (§2) The HH-responsive firefly luciferase reporter (GLI-BS) and a control Renilla luciferase reporter (SV40-RL) were transfected into indicated cell lines using Effectene (Qiagen) either alone or with indicated DNAs. 24 hrs after transfection, cells were switched to low serum media (3% calf serum), and grown for another 48 hrs. in 5% CO2 in the presence/absence of compounds. 3T3-ShhFL cell line that stably expressing SHH and the two reporters were cultured in a similar fashion. FL and RL activities in lysate generated using Passive Lysis Buffer (Promega) were then assessed using the Dual-Luciferase kit (Promega) and a 96-well plate reading luminometer (BMG). The ratio of FL/RL was calculated and the averaged ratios from three replicates were reported.
# [2] = system: SMO-L412F in NIH3T3 (GLI-BS reporter); test: GLI-BS reporter assay, NIH3T3 cells with SMO-L412F DNA; format: cell-based; settings: Mus musculus
# Method: as §2
# [3] = system: SHH-induced GLI activity (GLI-BS reporter) in NIH3T3; test: HH pathway reporter (GLI-BS reporter) assay, +Shh in NIH3T3; format: cell-based; settings: Mus musculus; +Shh in NIH3T3, 48 hrs with compound
# Method: as §2
# [4] = system: RMS13 cells (GLI1 amp), GLI-BS reporter; test: GLI-BS reporter assay in RMS13 cells (GLI1 amplification); format: cell-based
# Method: as §2
# HDAC10 = target: T3, HDAC10 (Homo sapiens, UniProt Q969S8); test: In vitro HDAC profiling (deacetylation assay), HDAC10; format: biochemical; settings: for HDAC Activity (Fluorescent counts): Repeat1/Repeat 2
# T3 construct: purchased BPS Bioscience #50051-11
# T3 sequence (Q969S8 1-669): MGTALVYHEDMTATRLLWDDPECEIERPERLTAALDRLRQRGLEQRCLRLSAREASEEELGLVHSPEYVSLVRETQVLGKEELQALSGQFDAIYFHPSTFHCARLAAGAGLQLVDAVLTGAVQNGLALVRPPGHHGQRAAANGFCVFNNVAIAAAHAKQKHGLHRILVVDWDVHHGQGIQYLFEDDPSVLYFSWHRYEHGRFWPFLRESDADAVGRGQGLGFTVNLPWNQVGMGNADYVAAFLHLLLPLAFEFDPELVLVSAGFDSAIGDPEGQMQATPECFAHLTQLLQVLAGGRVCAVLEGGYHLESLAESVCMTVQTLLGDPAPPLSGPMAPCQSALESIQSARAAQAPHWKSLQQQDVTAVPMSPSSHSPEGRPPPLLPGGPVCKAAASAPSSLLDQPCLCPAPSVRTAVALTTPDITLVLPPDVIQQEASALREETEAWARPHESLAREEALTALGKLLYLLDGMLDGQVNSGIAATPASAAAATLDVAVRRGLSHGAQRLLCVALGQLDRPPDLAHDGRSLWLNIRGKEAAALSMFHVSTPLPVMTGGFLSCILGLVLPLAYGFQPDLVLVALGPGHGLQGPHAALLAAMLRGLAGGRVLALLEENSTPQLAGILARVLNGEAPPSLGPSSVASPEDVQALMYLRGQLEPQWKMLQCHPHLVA
# Method: as §1
# [5] = in vitro deacetylation assay, duplicates
# T1 sequence (Q9UQL6 whole entry): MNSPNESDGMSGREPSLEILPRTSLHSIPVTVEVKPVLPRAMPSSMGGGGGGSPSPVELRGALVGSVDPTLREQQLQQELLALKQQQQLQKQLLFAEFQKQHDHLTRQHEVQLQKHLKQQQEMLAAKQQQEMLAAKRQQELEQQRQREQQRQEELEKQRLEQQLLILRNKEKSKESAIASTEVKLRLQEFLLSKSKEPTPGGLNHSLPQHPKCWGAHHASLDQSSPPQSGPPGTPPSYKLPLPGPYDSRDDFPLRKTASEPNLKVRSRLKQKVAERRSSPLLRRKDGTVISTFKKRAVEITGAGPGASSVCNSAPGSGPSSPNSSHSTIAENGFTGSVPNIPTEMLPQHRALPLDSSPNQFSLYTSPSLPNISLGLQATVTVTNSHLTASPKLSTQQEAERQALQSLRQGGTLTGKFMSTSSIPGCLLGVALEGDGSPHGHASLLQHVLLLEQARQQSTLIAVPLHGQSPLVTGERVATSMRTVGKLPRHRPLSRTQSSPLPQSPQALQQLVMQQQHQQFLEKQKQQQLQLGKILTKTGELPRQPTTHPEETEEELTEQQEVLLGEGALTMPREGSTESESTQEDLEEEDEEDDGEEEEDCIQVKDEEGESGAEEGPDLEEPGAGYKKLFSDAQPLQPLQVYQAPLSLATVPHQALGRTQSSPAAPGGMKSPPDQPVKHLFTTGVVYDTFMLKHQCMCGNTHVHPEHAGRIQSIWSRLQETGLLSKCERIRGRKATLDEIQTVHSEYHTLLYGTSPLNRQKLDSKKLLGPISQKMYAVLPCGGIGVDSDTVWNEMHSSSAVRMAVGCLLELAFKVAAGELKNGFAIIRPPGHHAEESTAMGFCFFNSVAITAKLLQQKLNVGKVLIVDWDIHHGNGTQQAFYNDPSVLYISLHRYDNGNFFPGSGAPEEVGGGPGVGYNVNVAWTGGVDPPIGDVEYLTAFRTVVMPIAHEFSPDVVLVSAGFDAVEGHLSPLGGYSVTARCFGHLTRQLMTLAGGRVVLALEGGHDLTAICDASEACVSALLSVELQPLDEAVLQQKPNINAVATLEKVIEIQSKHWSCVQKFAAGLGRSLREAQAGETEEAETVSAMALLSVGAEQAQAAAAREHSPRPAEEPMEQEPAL
# T2 sequence (Q92769 whole entry): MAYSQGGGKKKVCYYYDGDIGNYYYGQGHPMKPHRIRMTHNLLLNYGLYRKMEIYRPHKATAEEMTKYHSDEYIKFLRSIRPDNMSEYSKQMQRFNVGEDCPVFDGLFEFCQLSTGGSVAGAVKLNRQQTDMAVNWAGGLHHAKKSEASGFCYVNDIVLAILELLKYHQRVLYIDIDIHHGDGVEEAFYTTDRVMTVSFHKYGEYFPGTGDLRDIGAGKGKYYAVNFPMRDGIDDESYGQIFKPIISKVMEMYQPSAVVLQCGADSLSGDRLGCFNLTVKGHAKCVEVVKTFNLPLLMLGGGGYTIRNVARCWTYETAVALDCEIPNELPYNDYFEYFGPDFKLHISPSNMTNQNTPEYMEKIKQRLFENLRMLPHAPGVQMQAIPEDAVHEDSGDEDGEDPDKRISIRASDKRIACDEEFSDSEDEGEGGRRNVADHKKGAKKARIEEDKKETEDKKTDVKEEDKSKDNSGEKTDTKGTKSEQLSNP
structure (smiles),measurement,setting,value
O=C(CCCCCCC(=O)Nc1ccc(Cl)c(C(=O)Nc2ccc(NC(=O)c3cc(Cl)ccc3Cl)cc2)c1)NO [IHR-SAHA],HDAC Activity (Fluorescent counts),"HDAC5; HDAC5, WW01 0 Log nM",30976 Fluorescent counts and 29141 Fluorescent counts
same,HDAC Activity (Fluorescent counts),"HDAC5; HDAC5, WW01 0.5 Log nM",29969 Fluorescent counts and 29451 Fluorescent counts
same,HDAC Activity (Fluorescent counts),"HDAC5; HDAC5, WW01 1 Log nM",31041 Fluorescent counts and 29968 Fluorescent counts
same,HDAC Activity (Fluorescent counts),"HDAC5; HDAC5, WW01 1.5 Log nM",29717 Fluorescent counts and 27943 Fluorescent counts
same,HDAC Activity (Fluorescent counts),"HDAC5; HDAC5, WW01 2 Log nM",26390 Fluorescent counts and 24587 Fluorescent counts
same,HDAC Activity (Fluorescent counts),"HDAC5; HDAC5, WW01 2.5 Log nM",24330 Fluorescent counts and 23282 Fluorescent counts
same,HDAC Activity (Fluorescent counts),"HDAC5; HDAC5, WW01 3 Log nM",21924 Fluorescent counts and 21338 Fluorescent counts
same,HDAC Activity (Fluorescent counts),"HDAC5; HDAC5, WW01 3.5 Log nM",23432 Fluorescent counts and 20698 Fluorescent counts
same,HDAC Activity (Fluorescent counts),"HDAC5; HDAC5, WW01 4 Log nM",19760 Fluorescent counts and 18237 Fluorescent counts
same,HDAC Activity (Fluorescent counts),"HDAC5; HDAC5, WW01 -0.5 Log nM",30061 Fluorescent counts and 30641 Fluorescent counts
same,IC50,HDAC5; [5],> 10 µM
same,HDAC Activity (Fluorescent counts),"HDAC2; HDAC2, WW01 0 Log nM",25941 Fluorescent counts and 27493 Fluorescent counts
same,HDAC Activity (Fluorescent counts),"HDAC2; HDAC2, WW01 0.5 Log nM",25227 Fluorescent counts and 26727 Fluorescent counts
same,HDAC Activity (Fluorescent counts),"HDAC2; HDAC2, WW01 1 Log nM",25275 Fluorescent counts and 25129 Fluorescent counts
same,HDAC Activity (Fluorescent counts),"HDAC2; HDAC2, WW01 1.5 Log nM",23536 Fluorescent counts and 23240 Fluorescent counts
same,HDAC Activity (Fluorescent counts),"HDAC2; HDAC2, WW01 2 Log nM",22337 Fluorescent counts and 21686 Fluorescent counts
same,HDAC Activity (Fluorescent counts),"HDAC2; HDAC2, WW01 2.5 Log nM",18050 Fluorescent counts and 16002 Fluorescent counts
same,HDAC Activity (Fluorescent counts),"HDAC2; HDAC2, WW01 3 Log nM",12392 Fluorescent counts and 11718 Fluorescent counts
same,HDAC Activity (Fluorescent counts),"HDAC2; HDAC2, WW01 3.5 Log nM",9603 Fluorescent counts and 9800 Fluorescent counts
same,HDAC Activity (Fluorescent counts),"HDAC2; HDAC2, WW01 4 Log nM",7673 Fluorescent counts and 7404 Fluorescent counts
same,HDAC Activity (Fluorescent counts),"HDAC2; HDAC2, WW01 -0.5 Log nM",26601 Fluorescent counts and 28049 Fluorescent counts
same,IC50,HDAC2; [5],0.746 µM
same,IC50,[1],0.015 µM
same,IC50,[2],0.14 µM
same,IC50,[3],0.003 µM
same,IC50,[4],1.3 µM
same,HDAC Activity (Fluorescent counts),"HDAC10; HDAC10, WW01 0 Log nM",21183 Fluorescent counts and 21616 Fluorescent counts
same,HDAC Activity (Fluorescent counts),"HDAC10; HDAC10, WW01 0.5 Log nM",20859 Fluorescent counts and 21260 Fluorescent counts
same,HDAC Activity (Fluorescent counts),"HDAC10; HDAC10, WW01 1 Log nM",19414 Fluorescent counts and 20650 Fluorescent counts
same,HDAC Activity (Fluorescent counts),"HDAC10; HDAC10, WW01 1.5 Log nM",17046 Fluorescent counts and 19100 Fluorescent counts
same,HDAC Activity (Fluorescent counts),"HDAC10; HDAC10, WW01 2 Log nM",13500 Fluorescent counts and 13556 Fluorescent counts
same,HDAC Activity (Fluorescent counts),"HDAC10; HDAC10, WW01 2.5 Log nM",9393 Fluorescent counts and 9233 Fluorescent counts
same,HDAC Activity (Fluorescent counts),"HDAC10; HDAC10, WW01 3 Log nM",6324 Fluorescent counts and 6307 Fluorescent counts
same,HDAC Activity (Fluorescent counts),"HDAC10; HDAC10, WW01 3.5 Log nM",4593 Fluorescent counts and 4402 Fluorescent counts
same,HDAC Activity (Fluorescent counts),"HDAC10; HDAC10, WW01 4 Log nM",3949 Fluorescent counts and 4170 Fluorescent counts
same,HDAC Activity (Fluorescent counts),"HDAC10; HDAC10, WW01 -0.5 Log nM",22257 Fluorescent counts and 21526 Fluorescent counts
same,IC50,HDAC10; [5],0.174 µM
